Reference: US11213593B2, “Sequence-specific cellular uptake of spherical nucleic acid nanoparticle conjugates” (priority 2014, dated 2022)

Experiments:
C166 cells [1] = assay: Confocal microscopy of QD-SNAs in C166 cells; assay type: cell-based, mouse; conditions: C166 cells co-treated with equal concentrations of a QD-SNA and an AuNP-SNA of the other shell
Experimental: Five nanometer AuNP-SNAs and QD-SNAs comprised of oligonucleotides listed in Table 2 were prepared to study the effect of the poly G shell on the cellular uptake of SNAs of different core compositions (FIG. 6). All sequences are 28 bases long and terminated with a dibenzocyclooctyl (DBCO) group. The AuNP-SNAs and QD-SNAs were synthesized using a previously described strategy [Zhang et al., Nat Mater 12: 741-746 (2013), incorporated herein by reference in its entirety]. In one set of experiments, C166 cells were treated with equal concentrations of T-rich QD-SNAs and poly G AuNP-SNAs. In another set of experiments, cells were treated with equal concentrations of T-rich AuNP-SNAs and poly G QD-SNAs. Confocal microscopy was then used to track the fluorescent signal of the QDs that entered cells. […] To further confirm, ICP-MS was used to analyze the Au content and Cd content in C166 cells treated with T-rich AuNP-SNAs or QD-SNAs alone, poly G AuNP-SNAs or QD-SNAs alone, a combination of T-rich AuNP-SNAs and poly G QD-SNAs, and a combination of T-rich QD-SNAs and poly G AuNP-SNAs. C166 cells treated with poly G AuNP-SNAs have 3 times higher Au content than cells treated with T-rich AuNP-SNAs. […] Cells treated with poly G AuNP-SNAs and T-rich QD-SNAs have higher Au content compared to Cd content, and this trend is reversed for cells treated with T-rich AuNP-SNAs and poly G QD-SNAs (FIG. 6b).

C166 cells [2] = assay: ICP-MS of Au and Cd content in C166 cells (competitive cellular uptake assay); assay type: cell-based, mouse
Experimental: Five nanometer AuNP-SNAs and QD-SNAs comprised of oligonucleotides listed in Table 2 were prepared to study the effect of the poly G shell on the cellular uptake of SNAs of different core compositions (FIG. 6). All sequences are 28 bases long and terminated with a dibenzocyclooctyl (DBCO) group. The AuNP-SNAs and QD-SNAs were synthesized using a previously described strategy [Zhang et al., Nat Mater 12: 741-746 (2013), incorporated herein by reference in its entirety]. In one set of experiments, C166 cells were treated with equal concentrations of T-rich QD-SNAs and poly G AuNP-SNAs. In another set of experiments, cells were treated with equal concentrations of T-rich AuNP-SNAs and poly G QD-SNAs. Confocal microscopy was then used to track the fluorescent signal of the QDs that entered cells. […] To further confirm, ICP-MS was used to analyze the Au content and Cd content in C166 cells treated with T-rich AuNP-SNAs or QD-SNAs alone, poly G AuNP-SNAs or QD-SNAs alone, a combination of T-rich AuNP-SNAs and poly G QD-SNAs, and a combination of T-rich QD-SNAs and poly G AuNP-SNAs. […]
ICP-MS. After adding 5 μL of 5 ppm indium (internal standard) and 5 mL of matrix solution (2% HCl and 2% HNO3), the Au-197 content of the resultant solution was measured by an X Series II ICP-MS (ThermoFisher) after subtracting the background gold content of untreated cells. […]

Row | Substance | intracellular fluorescence of QDs (C166 cells [1]) | Cd content of cells versus cells treated with T-rich QD-SNAs (C166 cells [2]; C166 cells) | competitive cellular uptake (Au versus Cd content) (C166 cells [2]; C166 cells treated with a combination of AuNP-SNAs and QD-SNAs)
1 | T-rich QD-SNAs: CdSe quantum dot, polymer-coated, with DBCO-terminated 28-base T-rich DNA, SEQ ID NO: 8 (DNA TATCGTATTTACTCTGATTTTTTTTTTT; DBCO-terminated DNA clicked to polymer-coated CdSe quantum dot, further chemistry not given here) | very little intracellular fluorescence | – | –
2 | poly G QD-SNAs: CdSe quantum dot, polymer-coated, with DBCO-terminated 28-base DNA (GGT)5T13, SEQ ID NO: 7 (DNA GGTGGTGGTGGTGGTTTTTTTTTTTTTT; DBCO-terminated DNA clicked to polymer-coated CdSe quantum dot, further chemistry not given here) | significantly higher intracellular fluorescence | three-fold higher Cd content | preferentially enter cells
